The values that follow come from US7932270B2 (Cytokinetics, Inc., priority 2006, dated 2011).

The pIC50 is −log10 of the IC50, conventionally taken in molar units.

pIC50: −log10 of the molar value.

The target of this assay is T1, chicken gizzard smooth muscle myosin subfragment-1 chemically crosslinked to cardiac or skeletal actin (Gallus gallus, UniProt P10587).
T1 construct: chicken gizzard smooth muscle myosin subfragment-1; from tissue; host or cells: chicken gizzard
T1 sequence (P02607 2-151): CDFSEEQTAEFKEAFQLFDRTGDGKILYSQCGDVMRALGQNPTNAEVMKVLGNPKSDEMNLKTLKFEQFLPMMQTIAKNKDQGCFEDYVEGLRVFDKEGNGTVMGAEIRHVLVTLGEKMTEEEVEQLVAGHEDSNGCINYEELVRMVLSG
T1 sequence (P10587 84-789): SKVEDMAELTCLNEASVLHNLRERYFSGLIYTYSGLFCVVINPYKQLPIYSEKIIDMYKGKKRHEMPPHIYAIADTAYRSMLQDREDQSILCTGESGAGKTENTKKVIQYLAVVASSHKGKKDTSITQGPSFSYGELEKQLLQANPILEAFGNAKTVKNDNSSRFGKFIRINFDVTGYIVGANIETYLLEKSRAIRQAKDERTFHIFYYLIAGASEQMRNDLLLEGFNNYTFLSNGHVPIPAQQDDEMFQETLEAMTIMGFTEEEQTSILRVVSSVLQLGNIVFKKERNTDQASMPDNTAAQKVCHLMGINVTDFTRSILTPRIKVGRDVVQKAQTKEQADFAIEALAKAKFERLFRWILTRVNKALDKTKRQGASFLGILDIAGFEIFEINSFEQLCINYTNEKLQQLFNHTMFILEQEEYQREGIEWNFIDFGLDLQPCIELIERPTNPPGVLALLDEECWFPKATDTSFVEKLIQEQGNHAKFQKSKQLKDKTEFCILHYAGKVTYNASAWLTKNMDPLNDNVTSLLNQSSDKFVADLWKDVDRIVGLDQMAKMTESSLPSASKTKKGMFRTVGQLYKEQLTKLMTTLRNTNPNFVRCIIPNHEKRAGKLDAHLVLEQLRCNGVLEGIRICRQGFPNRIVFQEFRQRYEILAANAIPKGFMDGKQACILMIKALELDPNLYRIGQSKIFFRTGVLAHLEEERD
Description: Smooth muscle myosin ATPase dose response assay (pyruvate kinase/horseradish peroxidase/pyruvate oxidase-coupled, amplex red fluorescence). Type of assay: biochemical. To be noted: read-out: IC50 Arithmetic Mean. In outline: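 EDC/NHS-crosslinked S1–actin, amount set per prep by rate titration. Buffer: 12 mM K-PIPES pH 7.00 (22° C), 100 mM KCl, 2 mM MgCl2, 0.15 mM ATP, 0.1 mM PEP, 2 mM KPi, 0.1 mM amplex red. Read ex 480/em 615 nm; IC50 = midpoint, 4-param Hill fit.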
`C[C@@H](CNC(=O)c1ccc(-c2ccccc2C#N)nc1NCCc1cccc(F)c1)NC(=O)CCN`: the pIC50 was 5.45.
For `N#Cc1ccccc1-c1ccc(C(=O)N[C@H]2CCCNC2=O)c(NCCc2cccc(F)c2)n1` [N-((3S)-2-oxo(3-piperidyl))(6-(2-cyanophenyl)-2-{[2-(3-fluorophenyl)ethyl]amino}(3-pyridyl))carboxamide], the pIC50 is 5.25.
In the case of `CNC(=O)[C@@H](N)CNC(=O)c1ccc(-c2ccccc2C#N)nc1NCCc1cccc(F)c1` [(2S)-2-amino-3-[(6-(2-cyanophenyl)-2-{[2-(3-fluorophenyl)ethyl]amino}(3-pyridyl))carbonylamino]-N-methylpropanamide] it was 5.63; in that of `CC(C)(C)OC(=O)NCCN1CCCC1CNC(=O)c1ccc(-c2ccccc2C#N)nc1NCCc1cccc(F)c1` (stereo not shown) [N-[(1-{2-[(tert-butoxy)carbonylamino]ethyl}pyrrolidin-2-yl)methyl](6-(2-cyanophenyl)-2-{[2-(3-fluorophenyl)ethyl]amino}(3-pyridyl))carboxamide], 5.32.
To `Cc1cc(C(=O)NC[C@H]2CCCN2C(=O)CCCNC(=O)OC(C)(C)C)c(NCCc2cccc(F)c2)nc1-c1cnn(C)c1` [N-[((2R)-1-{4-[(tert-butoxy)carbonylamino]butanoyl}pyrrolidin-2-yl)methyl](2-{[2-(3-fluorophenyl)ethyl]amino}-5-methyl-6-(1-methylpyrazol-4-yl)(3-pyridyl))carboxamide] belongs 5.64.
To `N#Cc1ccccc1-c1ccc(C(=O)NCc2cccc(C(=O)O)n2)c(NCCc2cccc(F)c2)n1` [6-{[(6-(2-cyanophenyl)-2-{[2-(3-fluorophenyl)ethyl]amino}-3-pyridyl)carbonylamino]methyl}pyridine-2-carboxylic acid] belongs 7.33; to `N#Cc1ccccc1-c1ccc(C(=O)NCCN)c(NCCc2cccc(F)c2)n1` [N-(2-aminoethyl)(6-(2-cyanophenyl)-2-{[2-(3-fluorophenyl)ethyl]amino}(3-pyridyl))carboxamide], 5.58; to `O=C(NCc1cccnc1)c1ccc(-c2ccccc2)nc1NCCN1CCCC1=O` [(2-{[2-(2-oxopyrrolidinyl)ethyl]amino}-6-phenyl(3-pyridyl))-N-(3-pyridylmethyl)carboxamide], 4.97.
Regarding `O=C1CNCC(CNC(=O)c2ccc(-c3cn[nH]c3)nc2NCCc2cccc(F)c2)N1` (stereo not shown) [(2-{[2-(3-fluorophenyl)ethyl]amino}-6-pyrazol-4-yl(3-pyridyl))-N-[(6-oxopiperazin-2-yl)methyl]carboxamide], the pIC50 was 6.01.
With `Cc1cc(C)n(CCNc2nc(-c3ccccc3)ccc2C(=O)NCc2cccnc2)n1` [(2-{[2-(3,5-dimethylpyrazolyl)ethyl]amino}-6-phenyl(3-pyridyl))-N-(3-pyridylmethyl)carboxamide], the pIC50 is 5.17.
Consider `N#Cc1ccccc1-c1ccc(C(=O)NCCCCCN)c(NCCc2cccc(F)c2)n1` [N-(5-aminopentyl)(6-(2-cyanophenyl)-2-{[2-(3-fluorophenyl)ethyl]amino}(3-pyridyl))carboxamide], for which the pIC50 was 6.81.
In the case of `O=C(NCc1cccs1)c1ccc(-c2ccccc2)nc1NCCc1ccccn1` [{6-phenyl-2-[(2-(2-pyridyl)ethyl)amino](3-pyridyl)}-N-(2-thienylmethyl)carboxamide], the pIC50 is 5.76.
In the case of `NCCn1ccc(CNC(=O)c2ccc(-c3cn[nH]c3)nc2NCCc2cccc(F)c2)n1` [N-{[1-(2-aminoethyl)pyrazol-3-yl]methyl}(2-{[2-(3-fluorophenyl)ethyl]amino}-6-pyrazol-4-yl(3-pyridyl))carboxamide] it was 5.83; in that of `Cn1cc(-c2ccc(C(=O)NC[C@H]3CCCN3C(=O)CCCNC(=O)OC(C)(C)C)c(NCCc3cccc(F)c3)n2)cn1` [N-[((2R)-1-{4-[(tert-butoxy)carbonylamino]butanoyl}pyrrolidin-2-yl)methyl](2-{[2-(3-fluorophenyl)ethyl]amino}-6-(1-methylpyrazol-4-yl)(3-pyridyl))carboxamide], 5.44.
To `NC(=O)CNCC(O)c1ccc(-c2ccccc2)nc1NCCc1cccc(F)c1` (stereo not shown) [2-{[2-(2-{[2-(3-fluorophenyl)ethyl]amino}-6-phenyl(3-pyridyl))-2-hydroxyethyl]amino}acetamide] belongs 4.29; to `N#Cc1ccccc1-c1ccc(C(=O)N[C@@H](CO)C(N)=O)c(NCCc2cccc(F)c2)n1` [N-((1S)-1-carbamoyl-2-hydroxyethyl)(6-(2-cyanophenyl)-2-{[2-(3-fluorophenyl)ethyl]amino}(3-pyridyl))carboxamide], 5.99.
In the case of `O=C(NCc1cccnc1)c1ccc(-c2ccsc2)nc1NCCc1cc(F)cc(F)c1` [(2-{[2-(3,5-difluorophenyl)ethyl]amino}-6-(3-thienyl)(3-pyridyl))-N-(3-pyridylmethyl)carboxamide] it was 7.40; in that of `N#Cc1ccccc1-c1ccc(C(=O)NC[C@@H](COC(=O)CN)NC(=O)CN)c(NCCc2cccc(F)c2)n1` [(2S)-2-(2-aminoacetylamino)-3-[(6-(2-cyanophenyl)-2-{[2-(3-fluorophenyl)ethyl]amino}(3-pyridyl))carbonylamino]propyl 2-aminoacetate], 5.24; in that of `C[C@H](CNC(=O)c1cc(F)c(-c2cnn(C)c2)nc1NCCc1cccc(F)c1)NC(=O)CCCNC(=O)OC(C)(C)C`, 7.00.
Turning to `N#Cc1ccccc1-c1ccc(C(=O)NCCCCCCN)c(NCCc2cccc(F)c2)n1` [N-(6-aminohexyl)(6-(2-cyanophenyl)-2-{[2-(3-fluorophenyl)ethyl]amino}(3-pyridyl))carboxamide], the pIC50 is 5.91.
On to `Cn1cc(-c2ccc(C(=O)NCc3ccn(CCN)n3)c(NCCc3cccc(F)c3)n2)cn1` [N-{[1-(2-aminoethyl)pyrazol-3-yl]methyl}(2-{[2-(3-fluorophenyl)ethyl]amino}-6-(1-methylpyrazol-4-yl)(3-pyridyl))carboxamide], for which the negative logarithm of the IC50 (pIC50) is 5.73.
Turning to `N#Cc1ccccc1-c1ccc(C(=O)NCCc2cccc(CN)n2)c(NCCc2cccc(F)c2)n1` [N-{2-[6-(aminomethyl)(2-pyridyl)]ethyl}(6-(2-cyanophenyl)-2-{[2-(3-fluorophenyl)ethyl]amino}(3-pyridyl))carboxamide], the pIC50 is 7.49.
`C[C@@H](N)CNC(=O)c1ccc(-c2ccccc2C#N)nc1NCCc1cccc(F)c1` [N-((2R)-2-aminopropyl)(6-(2-cyanophenyl)-2-{[2-(3-fluorophenyl)ethyl]amino}(3-pyridyl))carboxamide]: the pIC50 is 6.40.
In the case of `O=C(NC[C@H]1CCN1C(=O)CO)c1cc(F)c(-c2cn[nH]c2)nc1NCCc1cccc(F)c1` [N-{[(2R)-1-(2-hydroxyacetyl)azetidin-2-yl]methyl}(5-fluoro-2-{[2-(3-fluorophenyl)ethyl]amino}-6-pyrazol-4-yl(3-pyridyl))carboxamide] it was 7.34.
For the compound `Cn1cc(-c2ccc(C(=O)NC[C@H]3CCC(=O)N3CCCN)c(NCCc3cccc(F)c3)n2)cn1` [N-{[(2R)-1-(3-aminopropyl)-5-oxopyrrolidin-2-yl]methyl}(2-{[2-(3-fluorophenyl)ethyl]amino}-6-(1-methylpyrazol-4-yl)(3-pyridyl))carboxamide], the pIC50 was 6.54.
Turning to `CC(C)(C)OC(=O)NCCCN1C(=O)CC[C@@H]1CNC(=O)c1cc(F)c(-c2cn[nH]c2)nc1NCCc1cccc(F)c1` [N-[((2R)-1-{3-[(tert-butoxy)carbonylamino]propyl}-5-oxopyrrolidin-2-yl)methyl](5-fluoro-2-{[2-(3-fluorophenyl)ethyl]amino}-6-pyrazol-4-yl(3-pyridyl))carboxamide], the pIC50 is 6.45.
Regarding `N#Cc1ccccc1-c1ccc(C(=O)NCc2ncccc2C(F)(F)F)c(NCCc2cccc(F)c2)n1` [(6-(2-cyanophenyl)-2-{[2-(3-fluorophenyl)ethyl]amino}(3-pyridyl))-N-{[3-(trifluoromethyl)(2-pyridyl)]methyl}carboxamide], the pIC50 was 6.22.
Consider `O=C(NC[C@@H]1CCCO1)c1ccc(-c2ccccc2)nc1NCCc1ccccn1` [N-[((2S)oxolan-2-yl)methyl]{6-phenyl-2-[(2-(2-pyridyl)ethyl)amino](3-pyridyl)}carboxamide], for which the pIC50 was 5.17.
`CNCCNC(=O)CNC(=O)c1ccc(-c2ccccc2C#N)nc1NCCc1cccc(F)c1` [2-[(6-(2-cyanophenyl)-2-{[2-(3-fluorophenyl)ethyl]amino}(3-pyridyl))carbonylamino]-N-[2-(methylamino)ethyl]acetamide]: the pIC50 was 4.95.
In the case of `N#Cc1ccccc1-c1ccc(C(=O)NC[C@H]2CCC(=O)N2)c(NCCc2cccc(F)c2)n1` [N-[((2R)-5-oxopyrrolidin-2-yl)methyl](6-(2-cyanophenyl)-2-{[2-(3-fluorophenyl)ethyl]amino}(3-pyridyl))carboxamide] it was 7.89.
`NC(=O)CNC(=O)c1ccc(-c2ccccc2)nc1NCCc1ccccc1` [N-(carbamoylmethyl){6-phenyl-2-[(2-phenylethyl)amino](3-pyridyl)}carboxamide]: the pIC50 was 6.09.
As for `N#Cc1ccccc1-c1ccc(C(=O)NC[C@H]2CN(CCCN)CC(=O)N2)c(NCCc2cccc(F)c2)n1` [N-{[(2S)-4-(3-aminopropyl)-6-oxopiperazin-2-yl]methyl}(6-(2-cyanophenyl)-2-{[2-(3-fluorophenyl)ethyl]amino}(3-pyridyl))carboxamide], the pIC50 was 5.55.
In the case of `O=C(NCc1cccnc1)c1ccc(-c2ccccc2)nc1NCCc1ccccn1` [{6-phenyl-2-[(2-(2-pyridyl)ethyl)amino](3-pyridyl)}-N-(3-pyridylmethyl)carboxamide] it was 6.29; in that of `N#Cc1ccccc1-c1ccc(C(=O)NC[C@H]2CN(C(=O)CCCN)CCN2)c(NCCc2cccc(F)c2)n1` [N-{[(2S)-4-(4-aminobutanoyl)piperazin-2-yl]methyl}(6-(2-cyanophenyl)-2-{[2-(3-fluorophenyl)ethyl]amino}(3-pyridyl))carboxamide], 4.91.
